For one assay, the system named is HEK-293 cells. Briefly: CellTiter-Glo assay for human cells. It is filed as cell-based. The settings on record: HEK293, HEK-293, 24 h. As to the method: (§1) HEK-293 and HS-5 cells were stored in liquid nitrogen, in freezing medium [50% Dulbecco’s Modified Eagle’s Medium (DMEM), 40% fetal bovine serum, and 10% DMSO] for long-term storage. For experimental use, the cells were thawed and then cultured using DMEM containing 10% […] and 1% penicillin/streptomycin.
(§2) The 1:1 serial dilutions of the compounds were performed in 96-well plates to obtain a final concentration range (three technical replicates each) equivalent to 0.781, 1.562, 3.125, 6.25, 12.5, 25, 50, and 100 µM. […] The plates were placed inside plastic bags to prevent evaporation and incubated at 37°C, 5% CO2 for 24 h. One hundred microliters of CellTiter-Glo 2.0 (Promega, G9243) was added to each well and then measured for luminescence using a Synergy 2 Gen 5 plate reader from BioTek.
(In general: ATP-based viability assays read luminescence as a measure of living cells.)

The test system of another assay is HS-5 cells. Briefly: CellTiter-Glo assay for human cells. It is filed as cell-based. The settings on record: HS5, HS-5, 24 h. As for the experimental part:
as §1, §2

The next assay has as its system C. glabrata cells. Briefly: CellTiter-Glo assay in Candida (relative ATP levels). Format: cell-based, Candida glabrata. The note with it: 0.625, 2.5, 10 µM; 1, 3, 6, 24 h. As for the experimental part: The samples were incubated for 24 h at 30°C and then measured for OD600. Equal number of cells were harvested in each time point according to an OD600 of 0.1–0.4 and then centrifuged at 7000 rpm for 5 minutes to remove the supernatant. The cell pellets were resuspended in 100-µL YNB −iron and then transferred to a 96-well plate. Finally, the samples were treated with 100-µL CellTiter-Glo and then measured for luminescence using a plate reader.

In assay [1] the test system is Aft1/2 target genes in aft1Δ S. cerevisiae. Briefly: RT-qPCR of Aft1/2 target genes in aft1Δ strain. Format: cell-based, Saccharomyces cerevisiae. The settings on record: 10 µM, 24 h. As to the method:
WT and […] cells were grown overnight in complete supplement mixture (CSM). […] After 24 h of incubation, cells were collected, and total RNA purification, reverse transcription, and RT-qPCR were performed as previously described with minor modifications ([59], [66]). Briefly, total RNA was purified using the RNeasy Mini Kit (74104, Qiagen), and reverse transcription was performed using the QuantiTect Reverse Transcription Kit (205311, Qiagen). RT-qPCR experiments were done using the HOT FIREPol EvaGreen qPCR Mix (08-36-00001-10, Solis Biodyne) and a LightCycler 96 System (Roche). Expression of the 5S gene was used as a control. The primers used in RT-qPCR experiments are as follows: […]
Background: In qPCR the cycle at which signal appears reflects the starting amount.

Usually EC50 stands for the concentration giving half of the maximal effect. Consider `c1ccc(-c2cccc(-c3ccccn3)n2)nc1` [2,2′:6′,2′′-terpyridine], for which the concentration giving a half-maximal response (EC50) in the assay on HEK-293 cells was found to be 37.1 ± 6.94 µM; with HS-5 cells, 28.7 ± 8.32 µM. For the same molecule, in the assay with C. glabrata cells, the “relative ATP levels (luminescence)” value is “concentration- and time-dependent reduction in luminescence”. Also, in assay [1], the “transcriptional responses after deletion of AFT1” value is listed as “attenuated the transcriptional responses”.

Values taken from PMC10845951, “Characterization of a selective, iron-chelating antifungal compound that disrupts fungal metabolism and synergizes with fluconazole” (Microbiology Spectrum, 2024).
